Reference: the NIST ThermoML archive (doi:10.1016/j.jct.2016.08.005)

Settings: Liquid, Vibrating tube method

Cc1ccc(C)s1 [2,5-dimethylthiophene]
Settings | mass density [kg/m3]
283.15 K, 100 kPa | 995.51
283.15 K, 2000 kPa | 996.96
283.15 K, 5000 kPa | 999.21
283.15 K, 7000 kPa | 1000.68
283.15 K, 10000 kPa | 1002.83
283.15 K, 15000 kPa | 1006.35
283.15 K, 20000 kPa | 1009.74
283.15 K, 25000 kPa | 1013.04
283.15 K, 30000 kPa | 1016.24
283.15 K, 35000 kPa | 1019.33
283.15 K, 40000 kPa | 1022.34
283.15 K, 45000 kPa | 1025.27
283.15 K, 50000 kPa | 1028.12
283.15 K, 55000 kPa | 1030.9
283.15 K, 60000 kPa | 1033.6
283.15 K, 65000 kPa | 1036.24
288.15 K, 100 kPa | 990.41
288.15 K, 2000 kPa | 991.9
288.15 K, 5000 kPa | 994.21
288.15 K, 7000 kPa | 995.72
288.15 K, 10000 kPa | 997.94
288.15 K, 15000 kPa | 1001.53
288.15 K, 20000 kPa | 1005.01
288.15 K, 25000 kPa | 1008.38
288.15 K, 30000 kPa | 1011.66
288.15 K, 35000 kPa | 1014.81
288.15 K, 40000 kPa | 1017.89
288.15 K, 45000 kPa | 1020.88
288.15 K, 50000 kPa | 1023.78
288.15 K, 55000 kPa | 1026.62
288.15 K, 60000 kPa | 1029.38
288.15 K, 65000 kPa | 1032.06
293.15 K, 100 kPa | 985.3
293.15 K, 2000 kPa | 986.82
293.15 K, 5000 kPa | 989.21
293.15 K, 7000 kPa | 990.74
293.15 K, 10000 kPa | 993.02
293.15 K, 15000 kPa | 996.71
293.15 K, 20000 kPa | 1000.28
293.15 K, 25000 kPa | 1003.72
293.15 K, 30000 kPa | 1007.07
293.15 K, 35000 kPa | 1010.31
293.15 K, 40000 kPa | 1013.45
293.15 K, 45000 kPa | 1016.49
293.15 K, 50000 kPa | 1019.47
293.15 K, 55000 kPa | 1022.35
293.15 K, 60000 kPa | 1025.15
293.15 K, 65000 kPa | 1027.88
298.15 K, 100 kPa | 980.2
298.15 K, 2000 kPa | 981.78
298.15 K, 5000 kPa | 984.2
298.15 K, 7000 kPa | 985.8
298.15 K, 10000 kPa | 988.14
298.15 K, 15000 kPa | 991.93
298.15 K, 20000 kPa | 995.59
298.15 K, 25000 kPa | 999.13
298.15 K, 30000 kPa | 1002.53
298.15 K, 35000 kPa | 1005.84
298.15 K, 40000 kPa | 1009.04
298.15 K, 45000 kPa | 1012.17
298.15 K, 50000 kPa | 1015.2
298.15 K, 55000 kPa | 1018.14
298.15 K, 60000 kPa | 1021.01
298.15 K, 65000 kPa | 1023.8
303.15 K, 100 kPa | 975.1
303.15 K, 2000 kPa | 976.72
303.15 K, 5000 kPa | 979.23
303.15 K, 7000 kPa | 980.88
303.15 K, 10000 kPa | 983.27
303.15 K, 15000 kPa | 987.17
303.15 K, 20000 kPa | 990.9
303.15 K, 25000 kPa | 994.52
303.15 K, 30000 kPa | 998.02
303.15 K, 35000 kPa | 1001.4
303.15 K, 40000 kPa | 1004.69
303.15 K, 45000 kPa | 1007.85
303.15 K, 50000 kPa | 1010.94
303.15 K, 55000 kPa | 1013.93
303.15 K, 60000 kPa | 1016.85
303.15 K, 65000 kPa | 1019.68
308.15 K, 100 kPa | 970
308.15 K, 2000 kPa | 971.66
308.15 K, 5000 kPa | 974.22
308.15 K, 7000 kPa | 975.91
308.15 K, 10000 kPa | 978.38
308.15 K, 15000 kPa | 982.36
308.15 K, 20000 kPa | 986.2
308.15 K, 25000 kPa | 989.91
308.15 K, 30000 kPa | 993.47
308.15 K, 35000 kPa | 996.93
308.15 K, 40000 kPa | 1000.28
308.15 K, 45000 kPa | 1003.53
308.15 K, 50000 kPa | 1006.66
308.15 K, 55000 kPa | 1009.75
308.15 K, 60000 kPa | 1012.72
308.15 K, 65000 kPa | 1015.59
313.15 K, 100 kPa | 964.84
313.15 K, 2000 kPa | 966.6
313.15 K, 5000 kPa | 969.22
313.15 K, 7000 kPa | 970.97
313.15 K, 10000 kPa | 973.5
313.15 K, 15000 kPa | 977.58
313.15 K, 20000 kPa | 981.52
313.15 K, 25000 kPa | 985.31
313.15 K, 30000 kPa | 988.97
313.15 K, 35000 kPa | 992.49
313.15 K, 40000 kPa | 995.92
313.15 K, 45000 kPa | 999.23
313.15 K, 50000 kPa | 1002.44
313.15 K, 55000 kPa | 1005.56
313.15 K, 60000 kPa | 1008.58
313.15 K, 65000 kPa | 1011.53
318.15 K, 100 kPa | 959.75
318.15 K, 2000 kPa | 961.52
318.15 K, 5000 kPa | 964.24
318.15 K, 7000 kPa | 966
318.15 K, 10000 kPa | 968.6
318.15 K, 15000 kPa | 972.8
318.15 K, 20000 kPa | 976.83
318.15 K, 25000 kPa | 980.72
318.15 K, 30000 kPa | 984.44
318.15 K, 35000 kPa | 988.06
318.15 K, 40000 kPa | 991.55
318.15 K, 45000 kPa | 994.93
318.15 K, 50000 kPa | 998.2
318.15 K, 55000 kPa | 1001.39
318.15 K, 60000 kPa | 1004.46
318.15 K, 65000 kPa | 1007.46
323.15 K, 100 kPa | 954.64
323.15 K, 2000 kPa | 956.46
323.15 K, 5000 kPa | 959.26
323.15 K, 7000 kPa | 961.09
323.15 K, 10000 kPa | 963.75
323.15 K, 15000 kPa | 968.05
323.15 K, 20000 kPa | 972.19
323.15 K, 25000 kPa | 976.16
323.15 K, 30000 kPa | 979.99
323.15 K, 35000 kPa | 983.67
323.15 K, 40000 kPa | 987.24
323.15 K, 45000 kPa | 990.69
323.15 K, 50000 kPa | 994.03
323.15 K, 55000 kPa | 997.27
323.15 K, 60000 kPa | 1000.41
323.15 K, 65000 kPa | 1003.46
328.15 K, 100 kPa | 949.46
328.15 K, 2000 kPa | 951.34
328.15 K, 5000 kPa | 954.21
328.15 K, 7000 kPa | 956.1
328.15 K, 10000 kPa | 958.85
328.15 K, 15000 kPa | 963.27
328.15 K, 20000 kPa | 967.5
328.15 K, 25000 kPa | 971.57
328.15 K, 30000 kPa | 975.49
328.15 K, 35000 kPa | 979.25
328.15 K, 40000 kPa | 982.9
328.15 K, 45000 kPa | 986.42
328.15 K, 50000 kPa | 989.84
328.15 K, 55000 kPa | 993.13
328.15 K, 60000 kPa | 996.35
328.15 K, 65000 kPa | 999.44
333.15 K, 100 kPa | 944.28
333.15 K, 2000 kPa | 946.2
333.15 K, 5000 kPa | 949.16
333.15 K, 7000 kPa | 951.09
333.15 K, 10000 kPa | 953.92
333.15 K, 15000 kPa | 958.46
333.15 K, 20000 kPa | 962.79
333.15 K, 25000 kPa | 966.97
333.15 K, 30000 kPa | 970.97
333.15 K, 35000 kPa | 974.83
333.15 K, 40000 kPa | 978.55
333.15 K, 45000 kPa | 982.15
333.15 K, 50000 kPa | 985.62
333.15 K, 55000 kPa | 988.98
333.15 K, 60000 kPa | 992.25
333.15 K, 65000 kPa | 995.41
338.15 K, 100 kPa | 939.09
338.15 K, 2000 kPa | 941.08
338.15 K, 5000 kPa | 944.14
338.15 K, 7000 kPa | 946.13
338.15 K, 10000 kPa | 949.02
338.15 K, 15000 kPa | 953.67
338.15 K, 20000 kPa | 958.14
338.15 K, 25000 kPa | 962.41
338.15 K, 30000 kPa | 966.51
338.15 K, 35000 kPa | 970.46
338.15 K, 40000 kPa | 974.25
338.15 K, 45000 kPa | 977.91
338.15 K, 50000 kPa | 981.46
338.15 K, 55000 kPa | 984.88
338.15 K, 60000 kPa | 988.2
338.15 K, 65000 kPa | 991.43
